Data reported in PubChem BioAssay (NCI).
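Step 1: Grow cells in 96-well plates. Step 2: Expose to compound for 48 hours at 5 concentrations. Step 3: Interpolate endpoints linearly; if unreached, use highest concentration. GI50 marks 50% less growth. The concentration for full growth arrest is given as TGI.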

Columns and labels:
Experiment in all cases: growth of human tumour cells (NCI), 48 h
HL-60(TB) leukemia = system: HL-60(TB) leukemia
MALME-3M melanoma = system: MALME-3M melanoma
MOLT-4 leukemia = system: MOLT-4 leukemia
MDA-MB-435 = system: MDA-MB-435
HS 578T breast = system: HS 578T breast
NCI-H460 lung = system: NCI-H460 lung
OVCAR-4 ovarian = system: OVCAR-4 ovarian
RPMI-8226 leukemia = system: RPMI-8226 leukemia
SK-MEL-28 melanoma = system: SK-MEL-28 melanoma
BT-549 breast = system: BT-549 breast
PC-3 prostate = system: PC-3 prostate
A549 NSCLC = system: A549 NSCLC
A498 renal = system: A498 renal
SF-295 CNS = system: SF-295 CNS
SNB-19 CNS = system: SNB-19 CNS
SK-OV-3 ovarian = system: SK-OV-3 ovarian
UACC-62 melanoma = system: UACC-62 melanoma
COLO 205 colon = system: COLO 205 colon
HCC-2998 colon = system: HCC-2998 colon
SR leukemia = system: SR leukemia
786-0 renal = system: 786-0 renal
HOP-62 NSCLC = system: HOP-62 NSCLC
ACHN renal = system: ACHN renal
SF-268 CNS = system: SF-268 CNS
HT29 colon = system: HT29 colon
UO-31 renal = system: UO-31 renal
DU-145 prostate = system: DU-145 prostate
NCI/ADR-RES ovarian = system: NCI/ADR-RES ovarian
CAKI-1 renal = system: CAKI-1 renal
NCI-H226 lung = system: NCI-H226 lung
K-562 leukemia = system: K-562 leukemia
SK-MEL-5 melanoma = system: SK-MEL-5 melanoma
SK-MEL-2 melanoma = system: SK-MEL-2 melanoma
OVCAR-3 ovarian = system: OVCAR-3 ovarian
KM12 colon = system: KM12 colon
M14 melanoma = system: M14 melanoma
TK-10 renal = system: TK-10 renal
IGROV1 ovarian = system: IGROV1 ovarian
LOX IMVI melanoma = system: LOX IMVI melanoma
U251 CNS = system: U251 CNS
SW-620 colon = system: SW-620 colon
SF-539 CNS = system: SF-539 CNS
OVCAR-5 ovarian = system: OVCAR-5 ovarian
MDA-MB-231 breast = system: MDA-MB-231 breast
UACC-257 melanoma = system: UACC-257 melanoma
NCI-H522 lung = system: NCI-H522 lung
HCT-116 colon = system: HCT-116 colon
RXF 393 renal = system: RXF 393 renal
EKVX NSCLC = system: EKVX NSCLC
SNB-75 CNS = system: SNB-75 CNS
T-47D breast = system: T-47D breast
MCF7 breast = system: MCF7 breast
OVCAR-8 ovarian = system: OVCAR-8 ovarian
HOP-92 NSCLC = system: HOP-92 NSCLC
SN12C renal = system: SN12C renal
HCT-15 colon = system: HCT-15 colon
MDA-N = system: MDA-N
NCI-H23 lung = system: NCI-H23 lung
CCRF-CEM leukemia = system: CCRF-CEM leukemia

Structure (SMILES): COc1ccc2c(c1)Cc1c-2c(NN)nc2ccccc12
- GI50 (HL-60(TB) leukemia): 27.9 µM
- TGI (HL-60(TB) leukemia): > 100 µM
- GI50 (MALME-3M melanoma): > 100 µM
- TGI (MALME-3M melanoma): > 100 µM
- GI50 (MOLT-4 leukemia): 27.3 µM
- TGI (MOLT-4 leukemia): > 100 µM
- GI50 (MDA-MB-435): 3.8 µM
- TGI (MDA-MB-435): > 100 µM
- GI50 (HS 578T breast): 35.8 µM
- TGI (HS 578T breast): > 100 µM
- GI50 (NCI-H460 lung): 14.9 µM
- TGI (NCI-H460 lung): 69 µM
- GI50 (OVCAR-4 ovarian): 31.1 µM
- TGI (OVCAR-4 ovarian): > 100 µM
- GI50 (RPMI-8226 leukemia): 17.6 µM
- TGI (RPMI-8226 leukemia): 48.3 µM
- GI50 (SK-MEL-28 melanoma): 60.5 µM
- TGI (SK-MEL-28 melanoma): > 100 µM
- GI50 (BT-549 breast): 50.4 µM
- TGI (BT-549 breast): > 100 µM
- GI50 (PC-3 prostate): 19.8 µM
- TGI (PC-3 prostate): > 100 µM
- GI50 (A549 NSCLC): 33.6 µM
- TGI (A549 NSCLC): > 100 µM
- GI50 (A498 renal): > 100 µM
- TGI (A498 renal): > 100 µM
- GI50 (SF-295 CNS): 25.7 µM
- TGI (SF-295 CNS): > 100 µM
- GI50 (SNB-19 CNS): 31.3 µM
- TGI (SNB-19 CNS): > 100 µM
- GI50 (SK-OV-3 ovarian): 16.9 µM
- TGI (SK-OV-3 ovarian): 77.6 µM
- GI50 (UACC-62 melanoma): 25 µM
- TGI (UACC-62 melanoma): > 100 µM
- GI50 (COLO 205 colon): 22.1 µM
- TGI (COLO 205 colon): > 100 µM
- GI50 (HCC-2998 colon): 28.4 µM
- TGI (HCC-2998 colon): > 100 µM
- GI50 (SR leukemia): 9.94 µM
- TGI (SR leukemia): > 100 µM
- GI50 (786-0 renal): 40.4 µM
- TGI (786-0 renal): > 100 µM
- GI50 (HOP-62 NSCLC): 56.6 µM
- TGI (HOP-62 NSCLC): > 100 µM
- GI50 (ACHN renal): 44.7 µM
- TGI (ACHN renal): > 100 µM
- GI50 (SF-268 CNS): 25.3 µM
- TGI (SF-268 CNS): > 100 µM
- GI50 (HT29 colon): 31.5 µM
- TGI (HT29 colon): > 100 µM
- GI50 (UO-31 renal): 25.7 µM
- TGI (UO-31 renal): > 100 µM
- GI50 (DU-145 prostate): 32 µM
- TGI (DU-145 prostate): > 100 µM
- GI50 (NCI/ADR-RES ovarian): 21 µM
- TGI (NCI/ADR-RES ovarian): > 100 µM
- GI50 (CAKI-1 renal): 39.8 µM
- TGI (CAKI-1 renal): > 100 µM
- GI50 (NCI-H226 lung): 64 µM
- TGI (NCI-H226 lung): > 100 µM
- GI50 (K-562 leukemia): 6.65 µM
- TGI (K-562 leukemia): 85.1 µM
- GI50 (SK-MEL-5 melanoma): 22 µM
- TGI (SK-MEL-5 melanoma): 58.3 µM
- GI50 (SK-MEL-2 melanoma): 33.1 µM
- TGI (SK-MEL-2 melanoma): > 100 µM
- GI50 (OVCAR-3 ovarian): 16.5 µM
- TGI (OVCAR-3 ovarian): 38.4 µM
- GI50 (KM12 colon): 13.8 µM
- TGI (KM12 colon): > 100 µM
- GI50 (M14 melanoma): 40.1 µM
- TGI (M14 melanoma): > 100 µM
- GI50 (TK-10 renal): 57.3 µM
- TGI (TK-10 renal): > 100 µM
- GI50 (IGROV1 ovarian): 24.6 µM
- TGI (IGROV1 ovarian): > 100 µM
- GI50 (LOX IMVI melanoma): 21.6 µM
- TGI (LOX IMVI melanoma): 78.8 µM
- GI50 (U251 CNS): 21.5 µM
- TGI (U251 CNS): 68.7 µM
- GI50 (SW-620 colon): 21.1 µM
- TGI (SW-620 colon): > 100 µM
- GI50 (SF-539 CNS): 36.3 µM
- TGI (SF-539 CNS): > 100 µM
- GI50 (OVCAR-5 ovarian): 35.5 µM
- TGI (OVCAR-5 ovarian): > 100 µM
- GI50 (MDA-MB-231 breast): 36 µM
- TGI (MDA-MB-231 breast): > 100 µM
- GI50 (UACC-257 melanoma): 53.7 µM
- TGI (UACC-257 melanoma): > 100 µM
- GI50 (NCI-H522 lung): 20.2 µM
- TGI (NCI-H522 lung): 58.5 µM
- GI50 (HCT-116 colon): 24.4 µM
- TGI (HCT-116 colon): 75.7 µM
- GI50 (RXF 393 renal): 30.5 µM
- TGI (RXF 393 renal): > 100 µM
- GI50 (EKVX NSCLC): 66.1 µM
- TGI (EKVX NSCLC): > 100 µM
- GI50 (SNB-75 CNS): 42.8 µM
- TGI (SNB-75 CNS): > 100 µM
- GI50 (T-47D breast): 26.5 µM
- TGI (T-47D breast): > 100 µM
- GI50 (MCF7 breast): 5.66 µM
- TGI (MCF7 breast): 48.5 µM
- GI50 (OVCAR-8 ovarian): 23.8 µM
- TGI (OVCAR-8 ovarian): > 100 µM
- GI50 (HOP-92 NSCLC): 22.8 µM
- TGI (HOP-92 NSCLC): 71.6 µM
- GI50 (SN12C renal): 40.3 µM
- TGI (SN12C renal): > 100 µM
- GI50 (HCT-15 colon): 25.5 µM
- TGI (HCT-15 colon): > 100 µM

Structure (SMILES): O=C(O)CCSc1nnc(COc2ccc(Cl)cc2)n1-c1ccccc1
- TGI (HL-60(TB) leukemia): > 100 µM
- TGI (MALME-3M melanoma): > 100 µM
- TGI (MOLT-4 leukemia): > 100 µM
- TGI (MDA-MB-435): > 100 µM
- TGI (NCI-H460 lung): > 100 µM
- TGI (OVCAR-4 ovarian): > 100 µM
- TGI (SK-MEL-28 melanoma): > 100 µM
- TGI (PC-3 prostate): > 100 µM
- TGI (A549 NSCLC): > 100 µM
- TGI (A498 renal): > 100 µM
- TGI (SF-295 CNS): > 100 µM
- TGI (SNB-19 CNS): > 100 µM
- TGI (SK-OV-3 ovarian): > 100 µM
- TGI (UACC-62 melanoma): > 100 µM
- TGI (COLO 205 colon): > 100 µM
- TGI (HCC-2998 colon): > 100 µM
- TGI (786-0 renal): > 100 µM
- TGI (HOP-62 NSCLC): > 100 µM
- TGI (ACHN renal): > 100 µM
- TGI (MDA-N): > 100 µM
- TGI (SF-268 CNS): > 100 µM
- TGI (HT29 colon): > 100 µM
- TGI (UO-31 renal): > 100 µM
- TGI (DU-145 prostate): > 100 µM
- TGI (NCI/ADR-RES ovarian): > 100 µM
- TGI (CAKI-1 renal): > 100 µM
- TGI (NCI-H226 lung): > 100 µM
- TGI (K-562 leukemia): > 100 µM
- TGI (SK-MEL-2 melanoma): > 100 µM
- TGI (OVCAR-3 ovarian): > 100 µM
- TGI (KM12 colon): > 100 µM
- TGI (M14 melanoma): > 100 µM
- TGI (NCI-H23 lung): > 100 µM
- TGI (TK-10 renal): > 100 µM
- TGI (IGROV1 ovarian): > 100 µM
- TGI (LOX IMVI melanoma): > 100 µM
- TGI (U251 CNS): > 100 µM
- TGI (SW-620 colon): > 100 µM
- TGI (SF-539 CNS): > 100 µM
- TGI (OVCAR-5 ovarian): > 100 µM
- TGI (MDA-MB-231 breast): > 100 µM
- TGI (UACC-257 melanoma): > 100 µM
- TGI (NCI-H522 lung): > 100 µM
- TGI (CCRF-CEM leukemia): > 100 µM
- TGI (HCT-116 colon): > 100 µM
- TGI (RXF 393 renal): > 100 µM
- TGI (EKVX NSCLC): > 100 µM
- TGI (SNB-75 CNS): > 100 µM
- TGI (T-47D breast): > 100 µM
- TGI (MCF7 breast): > 100 µM
- TGI (OVCAR-8 ovarian): > 100 µM
- TGI (HOP-92 NSCLC): > 100 µM
- TGI (SN12C renal): > 100 µM
- TGI (HCT-15 colon): > 100 µM
